Measurements published in paper PMC11990524, “Design and Synthesis of Novel 6-(Substituted phenyl)-[1,3]dioxolo[4′,5′:4,5]benzo[1,2-d]thiazole Compounds as Tyrosinase Inhibitors: In Vitro and In Vivo Insights” (Molecules, 2025).
Where two headings read alike, the source gives them in different places.

Experiments:
[1] = biological target: T1, B16F10 cell tyrosinase (Mus musculus, UniProt P11344); test: In situ cellular tyrosinase activity assay using B16F10 cells; type: cell-based, murine; details: 1, 2, and 5 μM, IBMX plus α-MSH, 72 h, L-dopa 2 h
T1 construct: endogenous in cells; host or cells: B16F10 murine cells, stimulated with α-MSH and IBMX
T1 sequence (P11344 19-533): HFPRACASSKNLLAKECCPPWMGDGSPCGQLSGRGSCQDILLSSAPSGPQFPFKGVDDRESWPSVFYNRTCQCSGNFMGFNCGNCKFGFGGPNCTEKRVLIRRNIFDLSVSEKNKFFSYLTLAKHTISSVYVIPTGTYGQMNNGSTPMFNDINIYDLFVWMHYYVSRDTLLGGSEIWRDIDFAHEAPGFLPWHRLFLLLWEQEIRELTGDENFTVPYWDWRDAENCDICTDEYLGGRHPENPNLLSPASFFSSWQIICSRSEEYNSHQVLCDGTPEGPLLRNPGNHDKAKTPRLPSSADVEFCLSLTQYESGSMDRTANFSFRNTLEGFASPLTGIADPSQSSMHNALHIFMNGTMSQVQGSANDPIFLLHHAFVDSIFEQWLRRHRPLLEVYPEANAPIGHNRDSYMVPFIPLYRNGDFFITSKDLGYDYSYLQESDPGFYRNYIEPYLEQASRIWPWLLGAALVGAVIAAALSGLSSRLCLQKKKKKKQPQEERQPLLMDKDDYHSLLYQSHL
Procedure: After 72 h of incubation, the cells were treated with an excessive amount of L-dopa for 2 h, and then the melanin-stained cells were photographed, and the pigmented areas of the cells were determined using an ATTO CS Analyzer (ATTO, Tokyo, Japan).
B16F10 (3 × 10^3 cells/well) cells in a 24-well plate were incubated for 24 h in a 5% CO2 incubator maintained at 37 °C. […] Stimulators (α-MSH and IBMX; 1 μM and 200 μM, respectively) were exposed to cells 1 h after treatment with the test sample, and the cells were incubated for 72 h in a 5% CO2 incubator. The cells were fixed for 40 min using paraformaldehyde solution (4%) (Sigma-Aldrich, St. Louis, MO, USA), washed with PBS (pH 7.4), and permeabilized for 2 min using Triton X-100 (0.1%). After washing twice with PBS, each well was exposed to L-dopa solution (500 μL; 2 mM). After incubation for 2 h, images of the cells stained with excess melanin were obtained using a camera connected to a microscope (Motic, Hong Kong).

[2] = biological target: T2, B16F10 cellular tyrosinase (Mus musculus, UniProt P11344); test: Cellular tyrosinase activity assay using B16F10 cells; type: cell-based, murine; details: 1, 2, and 5 μM, IBMX 200 μM plus α-MSH 1 μM, 72 h
T2 construct: endogenous in cells; host or cells: B16F10 murine cells, stimulated with α-MSH and IBMX
T2 sequence (P11344 19-533): T1 sequence (P11344 19-533)
Procedure: After 72 h of incubation, the B16F10 cellular tyrosinase inhibitory activity was evaluated by measuring the optical density at 475 nm.
To evaluate the effect of compounds 5 and 9 on cellular tyrosinase activity, B16F10 cells (5000 cells/well) were inoculated in a 6-well plate and cultured for 24 h under the same conditions as the cell culture. […] The plate was incubated in a 5% CO2 incubator maintained at 37 °C for 1 h. Each well was treated with stimulators (1 μM α-MSH [Alomone Labs^TM, Jerusalem, Israel] and 200 μM IBMX [Thermo Fisher, Rockford, IL, USA]) and incubated in a CO2 incubator for 72 h. The cells were rinsed twice with PBS (pH 7.4) and treated with 100 μL lysis buffer solution consisting of Triton X-100 (1%; 5 μL), phosphate buffer (50 mM; pH 6.5; 90 μL), and phenylmethanesulfonyl fluoride (2 mM; 5 μL). The lysates were placed for 30 min at −80 °C. After centrifuging at 10,000 g and 4 °C for 10 min, an aliquot (80 μL) of the supernatants was transferred to each well of a 96-well plate, and 20 μL of L-dopa solution (10 mM) was added to each well. The optical density at 475 nm was recorded every min for 10 min to determine cellular tyrosinase activity.

[3] = biological target: T3, mushroom tyrosinase (Agaricus bisporus, UniProt C7FF04); test: Mushroom tyrosinase inhibitory activity assay (L-dopa or L-tyrosine as substrate); type: biochemical; details: 50 μM, read-out: Inhibition (%, Mean ± SEM) at 50 μM (converted)
Procedure: In the inhibition experiments, L-dopa and L-tyrosine were used as enzyme substrates.
The plate was incubated at 37 °C for 30 min, and absorbance of dopachrome formation was recorded spectrophotometrically at 475 nm using a VersaMax® Elisa (VE) microplate reader (Molecular Devices, San Jose, CA, USA) to determine tyrosinase inhibition activity. A VE microplate reader was used in all subsequent experiments to measure optical density. All experiments were carried out independently three times.
Target sequence in this assay (C7FF04 2-392): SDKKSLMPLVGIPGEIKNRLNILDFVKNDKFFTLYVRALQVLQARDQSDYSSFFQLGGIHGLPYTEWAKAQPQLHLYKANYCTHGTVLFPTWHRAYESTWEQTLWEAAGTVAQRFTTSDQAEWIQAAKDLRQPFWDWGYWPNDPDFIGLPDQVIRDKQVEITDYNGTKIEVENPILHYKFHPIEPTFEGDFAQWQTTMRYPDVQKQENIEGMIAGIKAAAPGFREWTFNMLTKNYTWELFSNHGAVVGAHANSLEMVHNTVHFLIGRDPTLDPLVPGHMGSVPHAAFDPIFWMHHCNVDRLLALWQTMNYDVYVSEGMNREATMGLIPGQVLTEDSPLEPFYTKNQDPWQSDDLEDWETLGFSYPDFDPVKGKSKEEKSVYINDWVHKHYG

[4] = biological target: T3, mushroom tyrosinase; test: Kinetic analysis of mushroom tyrosinase (Lineweaver–Burk and Dixon plots); type: biochemical; set-up: purchased Sigma-Aldrich; details: substrate L-dopa
Procedure: Therefore, the mechanism of inhibition was investigated using mushroom tyrosinase. At various concentrations of L-dopa, the initial dopachrome production rate was investigated at four different concentrations of 5 (0, 20, 40, and 80 μM) and 9 (0, 0.5, 1.0, and 2.0 μM).
The Lineweaver–Burk plot for each compound was re-plotted by plotting the reciprocal of the initial dopachrome production rate vs. the […] to create a Dixon plot for each compound (Figure 3C,D for compounds 5 and 9, respectively). […] The absolute value of the x-coordinate of the merged point represents the inhibition constant (Ki), which indicates the potency of the inhibitor.
Kinetic analysis of mushroom tyrosinase was performed by recording the initial dopachrome formation rate in the presence of compounds 5 and 9. […] The optical density of dopachrome production in each well was recorded at 475 nm at 5 min intervals for 30 min. Compounds were tested at 80, 40, 20, and 0 μM for 5 and at 2, 1.0, 0.5, and 0 μM for 9, respectively. Potting the inverse of the substrate concentration vs. the reciprocal of the initial dopachrome production rate generated Lineweaver–Burk plots.
Target sequence in this assay (C7FF04 1-392): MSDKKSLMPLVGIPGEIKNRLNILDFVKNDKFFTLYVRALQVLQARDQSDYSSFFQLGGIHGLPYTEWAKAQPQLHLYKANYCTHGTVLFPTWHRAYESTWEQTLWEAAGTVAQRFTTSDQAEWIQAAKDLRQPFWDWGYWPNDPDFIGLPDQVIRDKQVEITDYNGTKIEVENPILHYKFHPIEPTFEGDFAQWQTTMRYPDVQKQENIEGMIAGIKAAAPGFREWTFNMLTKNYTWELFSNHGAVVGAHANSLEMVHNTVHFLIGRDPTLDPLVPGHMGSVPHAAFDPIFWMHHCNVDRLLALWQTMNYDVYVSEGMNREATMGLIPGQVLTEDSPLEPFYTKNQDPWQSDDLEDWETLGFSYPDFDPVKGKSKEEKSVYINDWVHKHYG

[5] = tested on: HaCaT cells; test: Cytotoxicity assay on HaCaT cells (EZ-Cytox); type: cell-based, human; details: 1, 2, 5, 10, and 20 μM, 24 h
Procedure: In addition to melanocytes, keratinocytes are the primary cells present in the epidermis. […] Each compound was treated at concentrations of 0, 1, 2, 5, 10, and 20 μM for 24 h, and cell viability was measured using the EZ-Cytox solution.
The effect of compounds 5 and 9 on cell viability of HaCaT and B16F10 cells was assessed using an EZ-Cytox solution (EZ-1000®, DoGenBio, Seoul, Republic of Korea). HaCaT (5 × 10^3 cells/well) and B16F10 (1 × 10^3 cells/well) cells were seeded in a 96-well plate, respectively, and cultured for 24 h under the same conditions as the cell culture. Each well was treated with 5 and 9 at 0, 1, 2, and 5 μM for B16F10 cells and 0, 1, 2, 5, 10, and 20 μM for HaCaT cells. The plates were incubated for 72 h for B16F10 cells and 24 h for HaCaT cells under a CO2 incubator. Each well was treated with the EZ-Cytox solution (10 μL), and the plate was left for 2 h under a CO2 incubator. Well optical density was measured at 450 nm to determine cytotoxicity.

[6] = tested on: B16F10 cells; test: Cellular melanin content assay using B16F10 cells; type: cell-based, murine
Procedure: After 72 h of incubation, the melanin content was evaluated by measuring the optical density at 405 nm.
The plate was incubated in a CO2 incubator for 1 h. Each well was treated with stimulators (α-MSH and IBMX; 1 μM and 200 μM, respectively) and incubated in a CO2 incubator for 72 h. The incubated cells were rinsed twice with PBS (pH 7.4). 1N–NaOH solution (100 μL) was added to each well and warmed at 60 °C for 1 h. The lysates were transferred to each well of a 96-well plate. The optical density was measured at 405 nm.

[7] = tested on: zebrafish embryos; test: In vivo pigmentation assay using zebrafish embryos; set-up: species or system Danio rerio; details: kojic acid 20 mM; treated at 24 hpf, measured at 72 hpf
Procedure: To identify whether the synthesized compounds could exert anti-melanogenic effects in vivo, in vivo experiments were performed using zebrafish embryos. Freely obtained zebrafish embryos were transferred to a culture dish containing an E3-MB solution and incubated at 28 °C until use. For a preliminary experiment, zebrafish embryos were dechorionated using Pronase® (Sigma-Aldrich) at 20 h post fertilization (hpf), and each compound at 0.1 mM was exposed to five zebrafish embryos in E3 solution at 24 hpf. The depigmentation abilities were compared at 72 hpf to select the compounds used in the main experiments. From the preliminary experiments (n = 1), five compounds (2, 5, and 11–13) were selected for the main depigmentation experiments (n = 3). As in the preliminary experiment, the obtained zebrafish embryos were dechorionated at 20 hpf, and each selected compound (0.1 mM) was administered to six zebrafish embryos in the E3 solution at 24 hpf. The pigmentation of zebrafish larvae was photographed and measured in dorsal and lateral views at 72 hpf using an ATTO CS analyzer (ATTO, Tokyo, Japan). […] Pigmentation of zebrafish larvae was imaged using the SMZ745T microscope (Nikon, Tokyo, Japan), and the pigmented areas were measured in dorsal and lateral views at 72 hpf using an ATTO CS analyzer (ATTO, Tokyo, Japan).

SMILES: Oc1ccc(-c2nc3cc4c(cc3s2)OCO4)cc1 [Compound 5, 4-([1,3]Dioxolo[4′,5′:4,5]benzo[1,2-d]thiazol-6-yl)phenol]
- number of cells strongly stained with melanin (in situ tyrosinase) [1]: evidently reduced the number of cells strongly stained with melanin
- cellular tyrosinase activity [2]: significantly decreased the cellular tyrosinase activity
- inhibition at 50 µM ([3]; substrate L-dopa): 63.3%
- inhibition at 50 µM ([3]; substrate L-tyrosine): 61.4%
- Ki ([4]; Dixon plot, read-out: inhibition constant (Ki)): 46 µM
- mechanism of inhibition ([4]; Lineweaver–Burk plot): competitive inhibitors
- cytotoxicity (cell viability) [5]: None of the compounds revealed significant cytotoxicity up to 20 μM
- melanin content ([6]; 1, 2, and 5 μM, IBMX 200 μM plus α-MSH 1 μM, 72 h): significantly reduced the stimulator-induced melanin contents
- melanin production inhibition compared with kojic acid ([6]; same concentration (5 μM)): inhibited melanin production more potently than kojic acid

SMILES: O=c1cc(CO)occ1O [kojic acid]
- depigmentation effect on zebrafish larvae [7]: significant depigmentation effect
